Experimental data from PubChem BioAssay (NCI).
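Interpolation was linear, between the two tested concentrations surrounding the appropriate level; five concentrations were tested over 48 hours in 96-well plates. At the TGI there is no net growth.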

How the values were obtained:
Assay in all cases: inhibition of tumour cell growth, NCI panel, 48 h
NCI-H226 lung = system: NCI-H226 lung
CCRF-CEM leukemia = system: CCRF-CEM leukemia
A498 renal = system: A498 renal
EKVX NSCLC = system: EKVX NSCLC
LXFL 529 NSCLC = system: LXFL 529 NSCLC
SF-539 CNS = system: SF-539 CNS
786-0 renal = system: 786-0 renal
M19-MEL melanoma = system: M19-MEL melanoma
SNB-78 CNS = system: SNB-78 CNS
KM12 colon = system: KM12 colon
SNB-75 CNS = system: SNB-75 CNS
HCT-116 colon = system: HCT-116 colon
COLO 205 colon = system: COLO 205 colon
OVCAR-8 ovarian = system: OVCAR-8 ovarian
KM20L2 colon = system: KM20L2 colon
HT29 colon = system: HT29 colon
IGROV1 ovarian = system: IGROV1 ovarian
UACC-257 melanoma = system: UACC-257 melanoma
HCT-15 colon = system: HCT-15 colon
ACHN renal = system: ACHN renal
SW-620 colon = system: SW-620 colon
OVCAR-3 ovarian = system: OVCAR-3 ovarian
TK-10 renal = system: TK-10 renal
XF 498 CNS = system: XF 498 CNS
NCI-H460 lung = system: NCI-H460 lung
DLD-1 colon = system: DLD-1 colon
SF-268 CNS = system: SF-268 CNS
HOP-62 NSCLC = system: HOP-62 NSCLC
UACC-62 melanoma = system: UACC-62 melanoma
OVCAR-5 ovarian = system: OVCAR-5 ovarian
SK-MEL-2 melanoma = system: SK-MEL-2 melanoma
LOX IMVI melanoma = system: LOX IMVI melanoma
M14 melanoma = system: M14 melanoma
SF-295 CNS = system: SF-295 CNS
DMS 273 small cell lung = system: DMS 273 small cell lung
MALME-3M melanoma = system: MALME-3M melanoma
UO-31 renal = system: UO-31 renal
SN12C renal = system: SN12C renal
SK-MEL-5 melanoma = system: SK-MEL-5 melanoma
RPMI-8226 leukemia = system: RPMI-8226 leukemia
A549 NSCLC = system: A549 NSCLC
SNB-19 CNS = system: SNB-19 CNS
CAKI-1 renal = system: CAKI-1 renal
RXF 393 renal = system: RXF 393 renal
HCC-2998 colon = system: HCC-2998 colon
U251 CNS = system: U251 CNS
HL-60(TB) leukemia = system: HL-60(TB) leukemia
K-562 leukemia = system: K-562 leukemia
DMS 114 small cell lung = system: DMS 114 small cell lung
MOLT-4 leukemia = system: MOLT-4 leukemia
SR leukemia = system: SR leukemia
HOP-92 NSCLC = system: HOP-92 NSCLC
SK-MEL-28 melanoma = system: SK-MEL-28 melanoma
OVCAR-4 ovarian = system: OVCAR-4 ovarian
NCI-H522 lung = system: NCI-H522 lung
SK-OV-3 ovarian = system: SK-OV-3 ovarian
NCI-H23 lung = system: NCI-H23 lung

Q: How did the TGI (NCI-H226 lung) turn out when Cc1ccc(Sc2cc([N+](=O)[O-])cc(Sc3ccc(C)cc3)c2Sc2ccc(C)cc2)cc1 was run?
A: > 100 µM

Q: What about the TGI (CCRF-CEM leukemia) of the same molecule?
A: 65.4 µM

Q: And the TGI (A498 renal)?
A: > 100 µM

Q: What about the TGI (EKVX NSCLC) of the same molecule?
A: > 100 µM

Q: What about the TGI (LXFL 529 NSCLC) of the same molecule?
A: > 100 µM

Q: And the TGI (SF-539 CNS)?
A: > 100 µM

Q: What about the TGI (786-0 renal) of the same molecule?
A: > 100 µM

Q: And the TGI (M19-MEL melanoma)?
A: > 100 µM

Q: What about the TGI (SNB-78 CNS) of the same molecule?
A: > 100 µM

Q: What about the TGI (KM12 colon) of the same molecule?
A: > 100 µM

Q: And the TGI (SNB-75 CNS)?
A: > 100 µM

Q: And the TGI (HCT-116 colon)?
A: > 100 µM

Q: What about the TGI (COLO 205 colon) of the same molecule?
A: > 100 µM

Q: And the TGI (OVCAR-8 ovarian)?
A: > 100 µM

Q: What about the TGI (KM20L2 colon) of the same molecule?
A: > 100 µM

Q: And the TGI (HT29 colon)?
A: > 100 µM

Q: What about the TGI (IGROV1 ovarian) of the same molecule?
A: > 100 µM

Q: What about the TGI (UACC-257 melanoma) of the same molecule?
A: > 100 µM

Q: And the TGI (HCT-15 colon)?
A: > 100 µM

Q: And the TGI (ACHN renal)?
A: > 100 µM

Q: What about the TGI (SW-620 colon) of the same molecule?
A: > 100 µM

Q: And the TGI (OVCAR-3 ovarian)?
A: > 100 µM

Q: And the TGI (TK-10 renal)?
A: > 100 µM

Q: And the TGI (XF 498 CNS)?
A: > 100 µM

Q: What about the TGI (NCI-H460 lung) of the same molecule?
A: > 100 µM

Q: What about the TGI (DLD-1 colon) of the same molecule?
A: > 100 µM

Q: And the TGI (SF-268 CNS)?
A: > 100 µM

Q: And the TGI (HOP-62 NSCLC)?
A: > 100 µM

Q: And the TGI (UACC-62 melanoma)?
A: > 100 µM

Q: And the TGI (OVCAR-5 ovarian)?
A: > 100 µM

Q: What about the TGI (SK-MEL-2 melanoma) of the same molecule?
A: > 100 µM

Q: And the TGI (LOX IMVI melanoma)?
A: > 100 µM

Q: What about the TGI (M14 melanoma) of the same molecule?
A: > 100 µM

Q: What about the TGI (SF-295 CNS) of the same molecule?
A: > 100 µM

Q: What about the TGI (DMS 273 small cell lung) of the same molecule?
A: > 100 µM

Q: And the TGI (MALME-3M melanoma)?
A: > 100 µM

Q: And the TGI (UO-31 renal)?
A: > 100 µM

Q: And the TGI (SN12C renal)?
A: > 100 µM

Q: What about the TGI (SK-MEL-5 melanoma) of the same molecule?
A: > 100 µM

Q: And the TGI (RPMI-8226 leukemia)?
A: > 100 µM

Q: And the TGI (A549 NSCLC)?
A: > 100 µM

Q: And the TGI (SNB-19 CNS)?
A: > 100 µM

Q: And the TGI (CAKI-1 renal)?
A: > 100 µM

Q: And the TGI (RXF 393 renal)?
A: > 100 µM

Q: What about the TGI (HCC-2998 colon) of the same molecule?
A: > 100 µM

Q: And the TGI (U251 CNS)?
A: > 100 µM

Q: And the TGI (HL-60(TB) leukemia)?
A: > 100 µM

Q: What about the TGI (K-562 leukemia) of the same molecule?
A: > 100 µM

Q: And the TGI (DMS 114 small cell lung)?
A: > 100 µM

Q: And the TGI (MOLT-4 leukemia)?
A: > 100 µM

Q: What does the source list for CN=C(NC#N)NCc1ccccc1?
A: TGI (NCI-H226 lung): > 100 µM; TGI (CCRF-CEM leukemia): > 100 µM; TGI (A498 renal): > 100 µM; TGI (EKVX NSCLC): > 100 µM; TGI (LXFL 529 NSCLC): > 100 µM; TGI (SR leukemia): > 100 µM; TGI (SF-539 CNS): > 100 µM; TGI (HOP-92 NSCLC): > 100 µM; TGI (786-0 renal): > 100 µM; TGI (SK-MEL-28 melanoma): > 100 µM; TGI (M19-MEL melanoma): > 100 µM; TGI (OVCAR-4 ovarian): > 100 µM; TGI (SNB-78 CNS): > 100 µM; TGI (KM12 colon): > 100 µM; TGI (SNB-75 CNS): > 100 µM; TGI (NCI-H522 lung): > 100 µM; TGI (HCT-116 colon): > 100 µM; TGI (COLO 205 colon): > 100 µM; TGI (OVCAR-8 ovarian): > 100 µM; TGI (KM20L2 colon): > 100 µM; TGI (HT29 colon): > 100 µM; TGI (IGROV1 ovarian): > 100 µM; TGI (UACC-257 melanoma): > 100 µM; TGI (HCT-15 colon): > 100 µM; TGI (ACHN renal): > 100 µM; TGI (SW-620 colon): > 100 µM; TGI (SK-OV-3 ovarian): > 100 µM; TGI (OVCAR-3 ovarian): > 100 µM; TGI (TK-10 renal): > 100 µM; TGI (XF 498 CNS): > 100 µM; TGI (NCI-H460 lung): > 100 µM; TGI (DLD-1 colon): > 100 µM; TGI (SF-268 CNS): > 100 µM; TGI (HOP-62 NSCLC): > 100 µM; TGI (OVCAR-5 ovarian): > 100 µM; TGI (SK-MEL-2 melanoma): > 100 µM; TGI (LOX IMVI melanoma): > 100 µM; TGI (M14 melanoma): > 100 µM; TGI (SF-295 CNS): > 100 µM; TGI (DMS 273 small cell lung): > 100 µM; TGI (MALME-3M melanoma): > 100 µM; TGI (UO-31 renal): > 100 µM; TGI (SN12C renal): > 100 µM; TGI (SK-MEL-5 melanoma): > 100 µM; TGI (RPMI-8226 leukemia): > 100 µM; TGI (A549 NSCLC): > 100 µM; TGI (SNB-19 CNS): > 100 µM; TGI (CAKI-1 renal): > 100 µM; TGI (NCI-H23 lung): > 100 µM; TGI (HCC-2998 colon): > 100 µM; TGI (U251 CNS): > 100 µM; TGI (HL-60(TB) leukemia): > 100 µM; TGI (DMS 114 small cell lung): > 100 µM; TGI (MOLT-4 leukemia): > 100 µM
